Assay results: patent US20250108065A1 (AstraZeneca AB, priority 2022, published 2025)
Read-outs that look alike come from different tables or passages of the source.

What was measured:
[1] = DAPA-HF
[2] = non-diabetic and prediabetic patients, DAPA-HF and DAPA-CKD, 10 mg once daily
Excerpt: DAPA-HF and DAPA-CKD included patients without diabetes, including those who qualify as prediabetic.

[3] = DAPA-CKD
[4] = DAPA-CKD, HbA1C < 6.5%, cited from earlier work
[5] = Excerpt: (§1) “eGFR slope” is the change in […] over time. “eGFR” stands for the estimated glomerular filtration rate.
(§2) (See Inker et al., GFR Slope as a Surrogate End Point for Kidney Disease Progression in Clinical Trials: A Meta-Analysis of Treatment Effects of Randomized Controlled Trials. J Am Soc Nephrol. 2019; 30 (9): 1735-45; Levey et al., GFR decline as an end point for clinical trials in CKD. Am J Kidney Dis. 2014; 64 (6): 821-35.)
(§3) The patients without diabetes (or T2D) included those with prediabetes.

[6] = DAPA-CKD; remark: listed apart in the source
Excerpt: as §3

[7] = DAPA-HF (prediabetes); slope at 14-720 days
Excerpt: as §1, §2

[8] = DAPA-HF; remark: listed apart in the source
[9] = Meta-analysis DAPA-HF/CKD, cited from earlier work
[10] = DECLARE subgroup: HbA1c <7%, eGFR ≥60 ml/min/1.73 m^2, no history of HF, UACR ≤300 mg/g; Dapa 10 mg vs placebo
Experimental: CI refers to Confidence interval; D refers to Dapa 10 mg; FAS refers to Full analysis set; HR refers to Hazard ratio; N refers to Number of participants; P refers to Placebo; refers to UACR Urinary albumin-to-creatinine ratio; and N at risk is the number of participants at risk at the beginning of the period.
For the purposes of the analysis, 1 month corresponds to 30 days. […] HR, CI, and p-value are from a Cox proportional hazard model. Blood pressure categories include normal (SBP <120 mmHg and DBP <80 mmHg); elevated (SBP 120-129 mmHg and DBP <80 mmHg); hypertension stage 1 (SBP 130-139 mmHg or DBP 80-89 mmHg); hypertension stage 2 (SBP >140 mmHg or DBP >90 mmHg); hypertensive crisis (SBP >180 mmHg and/or DBP >120 mmHg).

[11] = DAPA-HF, HbA1C < 6.5%, cited from earlier work
[12] = remark: listed apart in the source
Experimental: The DECLARE study enrolled a broad T2D patient population. By using parameters to select for a relatively healthy population that is close to the prediabetes population, the DECLARE population was split into 4 subgroups. The four subgroups in DECLARE are those with eGFR ≥60 ml/min/1.73 m^2, no history of HF at baseline and: • 1. HbA1c <7%, SBP <140 mmHg, and UACR ≤300 mg/g, or • 2. HbA1c <7%, SBP <140 mmHg, and UACR <30 mg/g, or • 3. T2D <5 years and UACR ≤300 mg/g, or • 4. T2D <5 years and UACR ≤30 mg/g.
as §2

[13] = pre-diabetic 5.7% ≤ HbA1c < 6.5, Dapa vs placebo

For `CCOc1ccc(Cc2cc([C@@H]3O[C@H](CO)[C@@H](O)[C@H](O)[C@H]3O)ccc2Cl)cc1` [dapagliflozin], the “Event rate of new onset T2D” value ([1]; pre-diabetic 5.7% ≤ HbA1C < 6.5, 1748 participants) was “Dapa: 5.3 per 100 patient-years of follow-up”, the “HR (95% CI) new onset T2D” value ([1]; pre-diabetic 5.7% ≤ HbA1C < 6.5, Dapa vs placebo) was 0.72 (0.52, 0.99) and the “Events of definite or probable diabetic ketoacidosis (DKA)” value [2] was “not observed”. The “major hypoglycemic AEs” value [2] was “not observed”, the safety profile [2] was “consistent with the profile established in patients with T2D” and the “Event rate of new onset T2D” value ([3]; pre-diabetic 5.7% ≤ HbA1c < 6.5, 660 participants) was “Dapa: 2.7 per 100 patient-years of follow-up”. For the same compound, the “HR (95% CI) new onset T2D” value [3, 13] was 0.59 (0.33, 1.04), the “Event rate of new onset T2D” value ([4]; 1398 participants) was “Dapa: 1.4 per 100 patient-years of follow-up” and the “HR (95% CI) new onset T2D” value ([4]; Dapa vs placebo) was 0.62 (0.36, 1.07). The “eGFR chronic slope, Slope diff between Dapa 10 mg and Placebo” value (from here on “eGFR chronic slope”) ([5]; DAPA-CKD (prediabetes), slope at 14 days-30 months) was 1.44 ml/min/1.73 m^2/yr, the “placebo-corrected difference in eGFR slope” value ([5]; DAPA-CKD, T2D patients, from baseline to end of treatment) was 1.18 ml/min/1.73 m^2/yr and the “placebo-corrected difference in eGFR slope” value ([5]; DAPA-CKD, T2D patients, from two weeks to end of treatment) was 2.26 ml/min/1.73 m^2/yr. For the same compound, the “placebo-corrected difference in eGFR slope” value ([5]; DAPA-CKD, patients without T2D, from baseline to end of treatment) was 0.46 ml/min/1.73 m^2/yr, the “placebo corrected difference in eGFR slope” value ([5]; DAPA-CKD, patients without T2D, from two weeks to end of treatment) was 1.29 ml/min/1.73 m^2/yr and the “HR, primary composite outcome of worsening of kidney function or death” value ([6]; patients with diabetes) was 0.64. For the same compound, the “HR, primary composite outcome of worsening of kidney function or death” value ([6]; patients without diabetes) was 0.50, the “eGFR chronic slope” value [7] was 1.35 ml/min/1.73 m^2/yr and the “HR, primary composite outcome (CV death, hospitalization for HF, or urgent HF visit)” value ([8]; patients with diabetes) was 0.75. For the same compound, the “HR, primary composite outcome (CV death, hospitalization for HF, or urgent HF visit)” value ([8]; patients without diabetes) was 0.73, the “Event rate of new onset T2D” value ([9]; HbA1c < 6.5%, 4003 participants) was “Dapa: 2.6 per 100 patient-years of follow-up” and the “HR (95% CI) new onset T2D” value ([9]; HbA1c < 6.5%, Dapa vs placebo) was 0.67 (0.51, 0.88). The “Event rate of new onset T2D” value ([9]; pre-diabetic 5.7% ≤ HbA1c < 6.5, 2408 participants) was “Dapa: 4.2 per 100 patient-years of follow-up”, the “HR (95% CI) new onset T2D” value [9, 13] was 0.69 (0.52, 0.91) and the “risk of worsening blood pressure (time to worsening in blood pressure category)” value [10] was “lowered the risk of worsening blood pressure compared with placebo”. For the same compound, the “Event rate of new onset T2D” value ([11]; 2605 participants) was “Dapa: 5.0 per 100 patient-years of follow-up”, the “HR (95% CI) new onset T2D” value ([11]; Dapa vs placebo) was 0.68 (0.50, 0.94) and the “eGFR chronic slope” value ([12]; DECLARE (Total Population), 6 months-2 yrs) was 1.34 ml/min/1.73 m^2/yr. For the same compound, the “eGFR chronic slope” value ([12]; DECLARE (Total Population), 6 months-3 yrs) was 1.18 ml/min/1.73 m^2/yr, the “eGFR chronic slope” value ([12]; DECLARE (Total Population), 6 months-4 yrs) was 1.01 ml/min/1.73 m^2/yr and the “eGFR chronic slope” value ([12]; DECLARE subgroup HbA1c <7%, SBP <140 mmHg, UACR <30 mg/g, eGFR ≥60, no HF, 6 months-2 yrs) was 1.25 ml/min/1.73 m^2/yr. For the same compound, the “eGFR chronic slope” value ([12]; DECLARE subgroup HbA1c <7%, SBP <140 mmHg, UACR <30 mg/g, eGFR ≥60, no HF, 6 months-3 yrs) was 1.17 ml/min/1.73 m^2/yr, the “eGFR chronic slope” value ([12]; DECLARE subgroup HbA1c <7%, SBP <140 mmHg, UACR <30 mg/g, eGFR ≥60, no HF, 6 months-3 yrs, listed as Dapa) was 1.71 ml/min/1.73 m^2/yr and the “eGFR chronic slope” value ([12]; DECLARE subgroup HbA1c <7%, SBP <140 mmHg, UACR <30 mg/g, eGFR ≥60, no HF, 6 months-4 yrs) was 0.98 ml/min/1.73 m^2/yr. For the same compound, the “eGFR chronic slope” value ([12]; DECLARE subgroup HbA1c <7%, SBP <140 mmHg, UACR ≤300 mg/g, eGFR ≥60, no HF, 6 months-2 yrs) was 1.56 ml/min/1.73 m^2/yr, the “eGFR chronic slope” value ([12]; DECLARE subgroup HbA1c <7%, SBP <140 mmHg, UACR ≤300 mg/g, eGFR ≥60, no HF, 6 months-3 yrs) was 1.85 ml/min/1.73 m^2/yr and the “eGFR chronic slope” value ([12]; DECLARE subgroup HbA1c <7%, SBP <140 mmHg, UACR ≤300 mg/g, eGFR ≥60, no HF, 6 months-4 yrs) was 1.08 ml/min/1.73 m^2/yr. For the same compound, the “eGFR chronic slope” value ([12]; DECLARE subgroup diabetes duration <5 years, UACR ≤30 mg/g, eGFR ≥60, no HF, 6 months-2 yrs) was 1.03 ml/min/1.73 m^2/yr, the “eGFR chronic slope” value ([12]; DECLARE subgroup diabetes duration <5 years, UACR ≤30 mg/g, eGFR ≥60, no HF, 6 months-3 yrs) was 0.96 ml/min/1.73 m^2/yr and the “eGFR chronic slope” value ([12]; DECLARE subgroup diabetes duration <5 years, UACR ≤30 mg/g, eGFR ≥60, no HF, 6 months-4 yrs) was 0.86 ml/min/1.73 m^2/yr. The “eGFR chronic slope” value ([12]; DECLARE subgroup diabetes duration <5 years, UACR ≤300 mg/g, eGFR ≥60, no HF, 6 months-2 yrs) was 0.88 ml/min/1.73 m^2/yr, the “eGFR chronic slope” value ([12]; DECLARE subgroup diabetes duration <5 years, UACR ≤300 mg/g, eGFR ≥60, no HF, 6 months-3 yrs) was 0.92 ml/min/1.73 m^2/yr and the “eGFR chronic slope” value ([12]; DECLARE subgroup diabetes duration <5 years, UACR ≤300 mg/g, eGFR ≥60, no HF, 6 months-4 yrs) was 0.86 ml/min/1.73 m^2/yr. For the same compound, the “renal benefits following dapagliflozin treatment” value ([12]; DECLARE, T2D patients with eGFR 60 to 90 and ≥90 ml/min/1.73 m^2) was “reduced eGFR decline and albuminuria”.
